According to US4172148A, “Ruminant feeds containing trichloroethyl esters of essential amino acids” (E. R. Squibb & Sons, Inc., priority 1978, dated 1979):

How the values were obtained:
[1] = tested on: volatile fatty acid concentrations in the rumen of fistulated wethers; assay: volatile fatty acid concentrations in the rumen of fistulated wethers, 454 g concentrate and 454 g chopped mixed hay (Example 6); format: in vivo, sheep; conditions: for Acetic:propionic ratio / Other acids (%) / Propionic acid (%) / Butyric acid (%) / Acetic acid (%) / Total acids: day 7
From the text: (§1) Mature sheep (wethers) fitted with permanent rumen fistulae were used to determine the effect of L-phenylalanine, 2,2,2-trichloroethyl ester on volatile fatty acid concentrations in vivo (3 wethers per treatment). The animals were individually penned and fed 227 g. of concentrate (described in Example 3) and 680 g. of alfalfa hay once daily. The test compound was admixed with the concentrate. The sheep were medicated for 7 days. Samples for analysis were obtained before (Day 0) and after treatment (Day 7) approximately 6 hours after feeding.
An experiment similar to that described in Example 5 was performed except that the animals (3 per treatment) were fed 454 g. of concentrate (described in Example 3) and 454 g. of chopped mixed (grasses) hay.

[2] = tested on: volatile fatty acid concentrations in fistulated sheep; assay: volatile fatty acid concentrations in vivo in fistulated sheep, 227 g concentrate and 680 g alfalfa hay (Examples 5 and 8); conditions: for Acetic:propionic ratio / Other acids (%) / Butyric acid (%) / Propionic acid (%) / Acetic acid (%) / Total acids: day 7
From the text: as §1

[3] = tested on: volatile fatty acid concentrations in the in vitro rumen fermentation; assay: in vitro rumen fermentation, volatile fatty acids, alfalfa hay:concentrate 3:1 (Examples 3 and 12); design: species or system sheep; conditions: for Acetic acid / Acetic:propionic / Butyric acid / Propionic acid / Total acids: 6 h, 39° C.
Description: A one gram sample of substrate ground through a 1 mm screen is weighed into 100 ml. lipless beakers equipped with gas-release valves. The substrate consists of alfalfa hay containing approximately 16% protein and a concentrate containing ground corn 60.7%, alfalfa meal 17.5%, molasses 10.0%, soybean meal 5.3%, wheat bran 5.0%, trace mineralized salt 1.0%, limestone 0.5% and Vitamin D 300,000 I.U./ton, mixed in the proportion 3:1. The experimental composition is added to the substrate. 25 ml. of filtered rumen fluid obtained from fasted sheep maintained on feed the same as the above mentioned substrate and 25 ml. of McDougal's buffer solution serve as the inoculum. The buffer solution is as follows:
The fermentation mixture is flushed with carbon dioxide and the vessel is capped with a gas release valve. The fermentation vessel (beaker) is placed in a water bath and incubated at 39° C.±1° for six hours. The sample is mixed every hour by shaking the beaker.
At the end of the 6-hour fermentation period the sample is strained through 4 layers of cheesecloth into a sample bottle containing 1 ml. saturated solution of mercuric chloride. The sample is frozen immediately until analyzed for the volatile fatty acids (VFA) (mg/100 ml.). Prior to analysis, each sample is acidified with 30% phosphoric acid and then analyzed by gas chromatography using a column containing 5% nonylphenoxypolyoxyethylene ethanol plus 0.5% phosphoric acid on 100-120 mesh Gas Chrom S. The acids determined are acetic, propionic, butyric, isobutyric, valeric and isovaleric acids. Total VFA is considered as the addition of these acids. The ratio of acetic: propionic (A:P) is obtained by dividing the concentration of acetic acid by that of propionic acid.
The effect of various compounds alone on the volatile fatty acid concentrations was determined by the procedure of Example 3. […] A direct comparison between phenylalanine and phenylalanine trichloroethyl ester is provided.

[4] = tested on: growing lambs; assay: body weight gain and feed efficiency of growing lambs (Examples 9-11); format: in vivo, lambs (sheep)
Description: A test was conducted to determine if feeding L-phenylalanine, 2,2,2-trichloroethyl ester to growing lambs was effective in improving growth and feed efficiency. Wether and ewe lambs were divided into groups of 30 lambs each. They were acclimated to their pens for 2 weeks prior to treatment.
The feed supplied to the animals had the following composition
The test compound in an amount of 0.0055% (50 g/ton) was admixed with the above feed composition.
Body weights and feed consumption were recorded at 0, 2, 4 and 6 weeks. Feed efficiencies were calculated.
The test procedure of Example 9 was followed to test the growth effect and feed efficiency of glycine 2,2,2-trichloroethyl ester on growing lambs. The feed composition of Example 9 was used but contained glycine 2,2,2-trichloroethyl ester in an amount of 0.0044% (40 g/ton). There were 44 lambs in the control group receiving the feed composition without additive and 42 lambs receiving the feed composition containing the amino acid ester.
The test procedure of Example 9 was followed to test the growth effect and feed efficiency of L-phenylalanine 2,2,2-trichloroethyl ester on growing lambs. The feed composition of Example 9 was used but contained 0.0088% (80 g/ton) of this amino acid ester. There were 59 lambs in the control group fed the feed without additive and 58 lambs in the group fed the feed composition containing the test compound.

Br.N[C@@H](Cc1ccccc1)C(=O)OCC(Cl)(Cl)Cl [L-Phenylalanine 2,2,2-trichloroethyl ester, hydrobromide]
Acetic:propionic ratio ([1]; 200 mg/head/day, pre-treatment 3.38, control day 7 3.54): 2.65
Other acids (%) ([1]; 200 mg/head/day, pre-treatment 5.2, control day 7 6.6): 8.2%
Propionic acid (%) ([1]; 200 mg/head/day, pre-treatment 17.5, control day 7 16.2): 19.0%
Butyric acid (%) ([1]; 200 mg/head/day, pre-treatment 18.4, control day 7 20.0): 22.5%
Acetic acid (%) ([1]; 200 mg/head/day, pre-treatment 58.8, control day 7 57.3): 50.3%
Total acids ([1]; 200 mg/head/day, pre-treatment 731, control day 7 687): 663 mg/100 ml
Acetic:propionic ratio ([1]; 500 mg/head/day, pre-treatment 3.43, control day 7 3.54): 2.18
Other acids (%) ([1]; 500 mg/head/day, pre-treatment 6.7, control day 7 6.6): 9.8%
Propionic acid (%) ([1]; 500 mg/head/day, pre-treatment 16.8, control day 7 16.2): 21.1%
Butyric acid (%) ([1]; 500 mg/head/day, pre-treatment 19.0, control day 7 20.0): 23.5%
Acetic acid (%) ([1]; 500 mg/head/day, pre-treatment 57.5, control day 7 57.3): 45.7%
Total acids ([1]; 500 mg/head/day, pre-treatment 851, control day 7 687): 734 mg/100 ml
effect on acetic:propionic ratio (in words) ([1]; fistulated wethers, 7 days): decreasing the acetic:propionic ratio
effect on proportion of propionic acid (in words) ([1]; fistulated wethers, 7 days): effective in increasing the proportion of propionic acid
Acetic:propionic ratio ([2]; 200 mg/head/day, pretreatment 3.52, control day 7 3.56): 3.11
Other acids (%) ([2]; 200 mg/head/day, pretreatment 5.4, control day 7 5.5): 5.8%
Butyric acid (%) ([2]; 200 mg/head/day, pretreatment 12.8, control day 7 15.5): 15.1%
Propionic acid (%) ([2]; 200 mg/head/day, pretreatment 18.2, control day 7 17.4): 19.3%
Acetic acid (%) ([2]; 200 mg/head/day, pretreatment 63.7, control day 7 61.6): 59.7%
Total acids ([2]; 200 mg/head/day, pretreatment 657, control day 7 698): 667 mg/100 ml.
Acetic:propionic ratio ([2]; 500 mg/head/day, pretreatment 3.39, control day 7 3.56): 2.43
Other acids (%) ([2]; 500 mg/head/day, pretreatment 5.7, control day 7 5.5): 8.1%
Butyric acid (%) ([2]; 500 mg/head/day, pretreatment 12.7, control day 7 15.5): 18.0%
Propionic acid (%) ([2]; 500 mg/head/day, pretreatment 18.6, control day 7 17.4): 21.5%
Acetic acid (%) ([2]; 500 mg/head/day, pretreatment 63.1, control day 7 61.6): 52.5%
Total acids ([2]; 500 mg/head/day, pretreatment 614, control day 7 698): 624 mg/100 ml.
effect on acetic:propionic ratio (in words) ([2]; fistulated sheep, 7 days): decreased the acetic:propionic ratio
effect on proportion of propionic acid (in words) ([2]; fistulated sheep, 7 days): increased the proportion of propionic acid
Acetic acid ([3]; 0.02 mg/ml): 95 % of control
Acetic:propionic ([3]; 0.02 mg/ml): 83 % of control
Butyric acid ([3]; 0.02 mg/ml): 106 % of control
Propionic acid ([3]; 0.02 mg/ml): 115 % of control
Total acids ([3]; 0.02 mg/ml): 101 % of control
Acetic acid ([3]; 0.04 mg/ml): 85 % of control
Acetic:propionic ([3]; 0.04 mg/ml): 77 % of control
Butyric acid ([3]; 0.04 mg/ml): 114 % of control
Propionic acid ([3]; 0.04 mg/ml): 111 % of control
Total acids ([3]; 0.04 mg/ml): 95 % of control
Acetic acid ([3]; 0.08 mg/ml): 95 % of control
Acetic:propionic ([3]; 0.08 mg/ml): 84 % of control
Butyric acid ([3]; 0.08 mg/ml): 108 % of control
Propionic acid ([3]; 0.08 mg/ml): 112 % of control
Total acids ([3]; 0.08 mg/ml): 100 % of control
Acetic acid ([3]; 0.1 mg/ml): 92 % of control
Acetic:propionic ([3]; 0.1 mg/ml): 74 % of control
Butyric acid ([3]; 0.1 mg/ml): 116 % of control
Propionic acid ([3]; 0.1 mg/ml): 124 % of control
Total acids ([3]; 0.1 mg/ml): 102 % of control
Acetic acid ([3]; 0.2 mg/ml): 90 % of control
Acetic:propionic ([3]; 0.2 mg/ml): 75 % of control
Butyric acid ([3]; 0.2 mg/ml): 114 % of control
Propionic acid ([3]; 0.2 mg/ml): 120 % of control
Total acids ([3]; 0.2 mg/ml): 100 % of control
Acetic acid ([3]; 0.4 mg/ml): 83 % of control
Acetic:propionic ([3]; 0.4 mg/ml): 73 % of control
Butyric acid ([3]; 0.4 mg/ml): 115 % of control
Propionic acid ([3]; 0.4 mg/ml): 114 % of control
Total acids ([3]; 0.4 mg/ml): 94 % of control
effect on acetic to propionic acid ratio (in words) ([3]; at all levels (0.02-0.4 mg/ml)): decreasing the acetic to propionic acid ratio
effect on propionic acid concentrations (in words) ([3]; at all levels (0.02-0.4 mg/ml)): effective in increasing the propionic acid concentrations
Body weight gain ([4]; 0.0055% (50 g/ton) in feed, 0-2 wks., control 2.47): 2.97 kg
Body weight gain ([4]; 0.0055% (50 g/ton) in feed, 0-4 wks., control 5.80): 5.82 kg
Feed efficiency ([4]; 0.0055% (50 g/ton) in feed, 0-6 wks., control 0.190): 0.196 gain/unit of feed
Body weight gain ([4]; 0.0055% (50 g/ton) in feed, 0-6 wks., control 8.51): 9.08 kg
effect on feed efficiency (in words) ([4]; 0.0055% (50 g/ton) in the feed): improving feed efficiency
effect on gains (in words) ([4]; 0.0055% (50 g/ton) in the feed): effective in increasing gains
Weight gain ([4]; 0.0088% (80 g/ton) in feed, 0-2 wks, control 1.50): 1.49 kg
Weight gain ([4]; 0.0088% (80 g/ton) in feed, 0-4 wks, control 4.44): 4.63 kg
Feed efficiency ([4]; 0.0088% (80 g/ton) in feed, 0-6 wks, control 0.160): 0.168 gain/feed
Weight gain ([4]; 0.0088% (80 g/ton) in feed, 0-6 wks, control 7.56): 7.81 kg
